Measurements reported in patent US5877165A, “Boronated porhyrins and methods for their use” (priority 1997, dated 1999).

Tests used:
EMT-6 mammary tumors = assay: Experiment III: boron concentrations in tissues, mice bearing EMT-6 tumors (Table 8); design: species or system BALB/c mice; conditions: mouse, in vivo, ip, 183 mg/kg
Description: (§1) Lipophilic porphyrins 1, 2, 4, 5, and 6 were injected as emulsions in either 3% or 9% CRM and either 6% or 18% PRG with saline as previously described in Example 2 above. Water soluble porphyrins 3 and 7 were dissolved in saline. BPA was solubilized as a fructose complex.
(§2) Female BALB/c mice (from Taconic Farms, Germantown, N.Y.) (20-25 g) were implanted with either KHJJ or EMT-6 tumors according to the procedure described in Example 3A above.
(§3) Under deep halothane anesthesia leading to euthanasia, right ventricular blood was collected in Microtainer (Becton-Dickinson, Rutherford, N.J.) tubes containing EDTA for hematological analyses and boron assays of whole blood and in Microtainer™ tubes containing lithium heparin for chemical analyses and enzyme assays of blood plasma. Tumor, brain, fat, muscle, and liver tissues were sampled at necropsy for boron analyses.
In Experiment III, NiTCP and NiTCP-H were compared in mice bearing EMT-6 mammary tumors. Each porphyrin was administered via 6 i.p. injections over a period of 32 hours and the mice were euthanized 39 hours and 90 hours after the last injection.
(§4) Hematological, chemical and enzymatic tests were carried out as described in Example 3 above. Nonparametric statistical analyses were carried out using the Wilcoxon Two-Sample Test in accordance with procedures described in Slatkin, D.N., 1995. Boron analyses were conducted in accordance with the procedure described in Example 3 above. Fat and liver tissues were assayed for ^10 B by prompt-gamma spectroscopy as described in Fairchild, et al., 1986. These measurements were multiplied by 5.0 to give total boron concentrations due to the use of boron of natural isotope abundance in the syntheses of all boronated porphyrins reported.

[1] = Overall ranking of boronated porphyrins for BNCT guided by biodistribution and toxicity tests in mice (Table 11)
Description: The higher the numerical value, the better the performance of that porphyrin for that property. […] Although VCDP was able to deliver therapeutic amounts of boron to tumor, such side effects such as thrombocytopenia, which was induced within 3 hours after injections, weight loss, and the altered hepatic enzymes were serious enough to rank VCDP considerably behind the TCP's and the TCP-H's (Miura et al., 1992). In addition, the 80-hour drug administration period and the 90-hour blood clearance period are of great inconvenience. Moreover, this 4-day difference between the VCDP and the TCP (or TCP-H) dose and clearance schedules would translate into a 4-day greater delay between initiation of drug administration and neutron irradiation which would allow greater tumor growth to occur.
[…]
biodistribution and toxicity tests in mice. An asterisk indicates

[2] = Experiment I: hematological, chemical and enzymatic tests, mice bearing KHJJ tumors (Table 7); format: in vivo, BALB/c mice; conditions: 3 ip over 8 hr, ZnDPE 118, NiTCP 183 μg/gbw, median (range)
Description: as §1, §2, §3
In Experiment I, NiTCP (183 μg/gbw) and lipophilic, heme derivative ZnDPE (118 μg/gbw) were compared in mice bearing KHJJ mammary tumors. The porphyrins were given as 3% CRM and 6% PrG emulsions in 3 ip injections given over 8 hrs. Animals were euthanized 15 hr, 39 hr, and 90 hr after the last injection.
as §4

## Nickel Tetracarboranylphenylporphyrin [NiTCP]
EMT-6 mammary tumors; 39 h
  Boron concentration, Blood: 2.8 (0.8-11.4) μg B/g
  Boron concentration, Brain: 1.6 (1.0-2.5) μg B/g
  Boron concentration, Liver: 201 (162-251) μg B/g
  Boron concentration, Tumor: 40 (26-73) μg B/g
EMT-6 mammary tumors; 90 h
  Boron concentration, Blood: 0.3 (0.1-0.3) μg B/g
  Boron concentration, Brain: 4.2 (1.3-6.0) μg B/g
  Boron concentration, Liver: 226 (176-284) μg B/g
[1]
  Drug tolerance/deliverable boron (ranking): 4
  Lipophilicity (ranking): 2
  Tumor uptake (normalized) (ranking): 3
  Tumor:Blood (ranking): 3
[1]; in vivo, at (potentially) therapeutic doses
  toxicity, in words (general): substantially less toxic
[2]; 15 hr
  % Δw: 0.5 (^- 3.2-4.1) %
  ALP: 80 (56-86)
  ALT: 28 (21-32)
  AST: 81 (60-146)
  BCR: 0.5 (0.4-0.5)
  BUN: 32 (27-41)
  CPK: 66 (41-289)
  GLU: 199 (183-262)
  PLT: 733 (579-956)
[2]; 39 hr
  % Δw: 3.9 (3.0-9.2) %
  ALP: 71 (57-88)
  ALT: 32 (27-153)
  AST: 108 (76-442)
  BCR: 0.4 (0.3-0.4)
  BUN: 35 (32-43)
  CPK: 167 (91-227)
  GLU: 210 (183-260)
  PLT: 826 (790-927)
[2]; 90 hr
  % Δw: 7.8 (5.9-12.1) %
  ALP: 40 (37-80)
  ALT: 27 (26-33)
  AST: 138 (46-285)
  BCR: 0.4 (0.4-0.4)
  BUN: 24 (14-34)
  CPK: 69 (52-94)
  GLU: 218 (172-242)
  PLT: 790 (553-839)
